Assay results published in ChEMBL document CHEMBL1130228, “Potent and selective 1,2,3-trisubstituted indole NPY Y-1 antagonists” (J Med Chem, 1997).

Legend:
[1] = biological target: T1, Neuropeptide Y receptor type 2 (Homo sapiens, UniProt P49146); assay: Affinity for human Neuropeptide Y receptor type 2
T1 sequence (P49146 whole entry): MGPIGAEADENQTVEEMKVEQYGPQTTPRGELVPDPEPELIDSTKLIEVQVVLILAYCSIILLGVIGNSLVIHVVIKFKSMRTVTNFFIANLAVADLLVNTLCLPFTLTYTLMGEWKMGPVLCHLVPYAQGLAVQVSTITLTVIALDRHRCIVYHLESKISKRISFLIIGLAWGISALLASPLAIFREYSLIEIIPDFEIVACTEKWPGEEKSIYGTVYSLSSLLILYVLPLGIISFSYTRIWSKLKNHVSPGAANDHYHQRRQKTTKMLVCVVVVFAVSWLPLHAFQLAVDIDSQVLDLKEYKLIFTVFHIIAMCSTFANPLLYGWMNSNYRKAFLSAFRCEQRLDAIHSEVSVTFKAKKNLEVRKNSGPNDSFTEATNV

[2] = biological target: T2, Neuropeptide Y receptor type 5 (Homo sapiens, UniProt Q15761); assay: Affinity for human Neuropeptide Y receptor type 5
T2 sequence (Q15761 whole entry): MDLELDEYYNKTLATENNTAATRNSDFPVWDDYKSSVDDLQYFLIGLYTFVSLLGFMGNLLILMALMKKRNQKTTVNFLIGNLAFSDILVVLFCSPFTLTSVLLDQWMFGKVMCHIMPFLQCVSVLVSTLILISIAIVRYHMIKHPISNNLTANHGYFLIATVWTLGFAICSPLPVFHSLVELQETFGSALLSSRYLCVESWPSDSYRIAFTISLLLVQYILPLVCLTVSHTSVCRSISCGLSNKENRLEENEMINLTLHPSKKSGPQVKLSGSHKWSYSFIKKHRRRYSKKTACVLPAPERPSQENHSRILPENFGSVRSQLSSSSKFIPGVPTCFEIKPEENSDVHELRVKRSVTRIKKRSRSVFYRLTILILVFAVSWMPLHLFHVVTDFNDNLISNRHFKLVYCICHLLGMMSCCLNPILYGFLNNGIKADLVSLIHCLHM

[3] = biological target: Neuropeptide Y receptor type 4 (Homo sapiens, UniProt P50391); assay: Affinity for human Neuropeptide Y receptor type 4
Chain of Neuropeptide Y receptor type 4 (P50391 whole entry): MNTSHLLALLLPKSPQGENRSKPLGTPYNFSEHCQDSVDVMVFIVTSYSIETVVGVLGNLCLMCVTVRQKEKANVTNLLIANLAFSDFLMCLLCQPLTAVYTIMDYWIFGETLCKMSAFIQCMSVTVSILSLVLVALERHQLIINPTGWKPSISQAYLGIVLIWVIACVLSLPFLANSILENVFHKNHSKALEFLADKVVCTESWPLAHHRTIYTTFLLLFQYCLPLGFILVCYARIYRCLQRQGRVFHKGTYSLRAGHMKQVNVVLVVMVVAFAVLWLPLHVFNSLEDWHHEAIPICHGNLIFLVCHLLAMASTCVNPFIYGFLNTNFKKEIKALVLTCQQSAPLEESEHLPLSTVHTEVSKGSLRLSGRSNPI

[4] = biological target: T3, Neuropeptide Y receptor type 1 (Homo sapiens, UniProt P25929); assay: Binding affinity for Neuropeptide Y receptor type 1 expressed in AV-12 cells; type: cell-based, AV12
T3 sequence (P25929 whole entry): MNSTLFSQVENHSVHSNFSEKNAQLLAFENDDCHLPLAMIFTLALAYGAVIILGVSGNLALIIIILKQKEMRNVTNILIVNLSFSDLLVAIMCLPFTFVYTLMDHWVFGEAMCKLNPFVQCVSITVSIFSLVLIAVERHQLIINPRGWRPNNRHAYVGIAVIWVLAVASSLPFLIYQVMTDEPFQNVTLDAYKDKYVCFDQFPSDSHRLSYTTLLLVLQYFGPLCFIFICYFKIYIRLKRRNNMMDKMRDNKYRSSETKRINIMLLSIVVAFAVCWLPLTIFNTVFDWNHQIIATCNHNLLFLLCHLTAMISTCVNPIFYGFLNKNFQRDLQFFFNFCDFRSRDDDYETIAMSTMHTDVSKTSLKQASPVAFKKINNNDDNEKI

[5] = biological target: T3, Neuropeptide Y receptor type 1; assay: Ability to reverse Neuropeptide Y receptor type 1-induced inhibition of forskolin-induced inhibition of forskolin-stimulated cAMP; type: functional
Mus musculus = assay: Ability to block increase in food consumption elicited by NPY (230 pmol, icv) into lateral ventricle of mice; type: functional
SK-N-MC = assay: Ability to reverse NPY-induced intracellular [Ca2+] mobilization in SK-N-MC cells; type: functional, cell-based, Homo sapiens

Row | Compound | Ki [1] [µM] | Ki [2] [µM] | Ki [3] [µM] | Ki [4] [µM] | Ki [5] [µM] | ED50 (Mus musculus) [µM] | Ki (SK-N-MC) [µM]
1 | O=C(CN1CCC(N2CCCCC2)CC1)c1c(COc2ccc(Cl)cc2)n(CCC[C@@H]2CCCNC2)c2ccccc12 | > 10 | > 10 | > 10 | 0.00075 | 0.0018 | 0.017 | 0.0032
2 | O=C(CN1CCC(N2CCCCC2)CC1)c1c(COc2ccc(Cl)cc2)n(CCC2CCNCC2)c2ccccc12 | > 10 | > 10 | > 10 | 0.0019 | – | – | –
3 | Clc1ccc(OCc2c(CN3CCC(N4CCCCC4)CC3)c3ccccc3n2CCN2CCCCC2)cc1 | > 10 | > 10 | > 10 | 0.098 | – | – | –
4 | Cn1c(COc2ccc(Cl)cc2Cl)c(CN2CCCCC2)c2ccccc21 | > 10 | > 10 | > 10 | 1.26 | – | – | –
5 | Cn1c(COc2ccc(Cl)cc2)c(CCN2CCCCC2)c2ccccc21 | > 10 | > 10 | > 10 | 2.88 | – | – | –
6 | O=C(CN1CCC(N2CCCCC2)CC1)c1c(COc2ccc(Cl)cc2)n(CCC[C@H]2CCCNC2)c2ccccc12 | > 10 | > 10 | > 10 | 0.0014 | – | – | –

Now from value to molecule, other results behind:

Row | Ki [1] [µM] | Ki [2] [µM] | Ki [3] [µM] | Ki [4] [µM] | Compound | Ki [5] [µM] | ED50 (Mus musculus) [µM] | Ki (SK-N-MC) [µM]
7 | > 10 | > 10 | > 10 | 0.559 | Cn1c(COc2ccc(Cl)cc2)c(CN2CCC(N3CCCCC3)CC2)c2ccccc21 | – | – | –
8 | > 10 | > 10 | > 10 | 0.44 | Cn1c(COc2ccc(Cl)cc2)c(C(=O)C(=O)N2CCC(N3CCCCC3)CC2)c2ccccc21 | – | – | –
9 | > 10 | > 10 | > 10 | – | N=C(N)NCCC[C@@H](NC(=O)C(c1ccccc1)c1ccccc1)C(=O)NCc1ccc(O)cc1 | – | – | –
10 | > 10 | > 10 | > 10 | 0.093 | Cn1c(COc2ccc(Cl)cc2)c(CCN2CCC(N3CCCCC3)CC2)c2ccccc21 | – | – | –
11 | > 10 | > 10 | > 10 | 2.32 | Cn1c(COc2ccc(Cl)cc2)c(CN2CCCCC2)c2ccccc21 | – | – | –
12 | > 10 | > 10 | > 10 | 0.026 | Cn1c(COc2ccc(Cl)cc2)c(C(=O)CN2CCC(N3CCCCC3)CC2)c2ccccc21 | – | – | –
